Test results as given in patent publication US9884868B2, “TGF-beta inhibitors” (Rigel Pharmaceuticals, Inc., priority 2015, dated 2018).

Experiments:
[1] = target: HIS-TGF-βR2 WT (Homo sapiens (Human), UniProt P37173); test: HTRF probe displacement assay with HIS-TGF-βR2 WT; conditions: read-out: TGFBr2 IC50; HTRF probe displacement, 1 nM HIS-TGF-βR2 WT, 1 hour at room temperature
[2] = target: HIS-TGF-βR1 T204D (Homo sapiens (Human), UniProt P36897, T204D); test: HTRF probe displacement assay with HIS-TGF-βR1 T204D; conditions: read-out: TGFbr1 IC50; HTRF probe displacement, 1 nM HIS-TGF-βR1 T204D, 1 hour at room temperature
Chain of HIS-TGF-βR1 T204D (P36897 34-503 T204D): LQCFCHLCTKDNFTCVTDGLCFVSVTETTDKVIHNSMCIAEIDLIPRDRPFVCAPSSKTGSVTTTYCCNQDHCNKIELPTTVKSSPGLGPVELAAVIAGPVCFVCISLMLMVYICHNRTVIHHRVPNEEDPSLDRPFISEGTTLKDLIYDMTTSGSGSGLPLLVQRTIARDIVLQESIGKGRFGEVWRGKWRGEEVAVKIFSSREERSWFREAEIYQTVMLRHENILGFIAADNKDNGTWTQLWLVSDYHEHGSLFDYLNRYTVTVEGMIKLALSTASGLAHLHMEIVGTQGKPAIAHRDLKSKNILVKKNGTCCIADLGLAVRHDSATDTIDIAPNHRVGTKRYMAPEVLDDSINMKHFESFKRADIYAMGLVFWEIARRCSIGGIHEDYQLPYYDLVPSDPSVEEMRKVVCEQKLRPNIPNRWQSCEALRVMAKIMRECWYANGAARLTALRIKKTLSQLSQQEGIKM

Chain of HIS-TGF-βR2 WT (P37173 23-567): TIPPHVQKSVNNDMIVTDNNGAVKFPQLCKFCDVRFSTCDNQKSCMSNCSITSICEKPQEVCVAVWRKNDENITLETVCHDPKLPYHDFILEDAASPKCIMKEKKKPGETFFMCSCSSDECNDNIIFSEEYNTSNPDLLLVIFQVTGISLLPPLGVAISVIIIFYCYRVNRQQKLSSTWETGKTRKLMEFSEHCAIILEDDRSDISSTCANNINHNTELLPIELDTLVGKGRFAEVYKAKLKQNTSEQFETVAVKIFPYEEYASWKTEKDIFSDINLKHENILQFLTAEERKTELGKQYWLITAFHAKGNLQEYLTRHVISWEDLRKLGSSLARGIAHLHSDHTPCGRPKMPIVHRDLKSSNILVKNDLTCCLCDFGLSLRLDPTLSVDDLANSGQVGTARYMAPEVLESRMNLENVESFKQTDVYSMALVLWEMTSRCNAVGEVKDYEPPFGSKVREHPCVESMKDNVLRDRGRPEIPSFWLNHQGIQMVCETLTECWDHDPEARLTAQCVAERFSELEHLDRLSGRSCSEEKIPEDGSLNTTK

Work on `N#Cc1cnc2ccc(-c3c(-c4cccc(OC(F)(F)F)c4)ncn3CC(F)F)nn12` [259′, 6-(1-(2,2-difluoroethyl)-4-(3-(trifluoromethoxy)phenyl)-1H-imidazol-5-yl)imidazo[1,2-b]pyridazine-3-carbonitrile] yielded an IC50 [1] greater than 15 µM and an IC50 [2] of 1 nM.

In the case of `NC(=O)CNC(=O)c1cnc2ccc(-c3c(-c4ccc(F)cc4)ncn3CC(F)F)cn12` [280′], the IC50 [1] is reported as greater than 15 µM and the IC50 [2] is reported as 3.2 nM.

Work on `NC(=O)c1cnc2ccc(-c3c(-c4ccc(F)cc4)ncn3C3CC(F)(F)C3)cn12` [180′, 6-(1-(3,3-difluorocyclobutyl)-4-(4-fluorophenyl)-1H-imidazol-5-yl)imidazo[1,2-a]pyridine-3-carboxamide] yielded an IC50 [1] greater than 15 µM and an IC50 [2] of 3.7 nM.

`NC(=O)c1cnc2ccc(-c3c(-c4ccc(F)c(Cl)c4)ncn3CCN3CCCC3)nn12` [143′, 6-(4-(3-chloro-4-fluorophenyl)-1-(2-(pyrrolidin-1-yl)ethyl)-1H-imidazol-5-yl)imidazo[1,2-b]pyridazine-3-carboxamide] gave an IC50 [1] greater than 15 µM and an IC50 [2] of 9.1 nM.

Compound `N#Cc1cnc2ccc(-c3c(-c4cccc(C(F)(F)F)c4)ncn3CC(F)F)nn12` [243′, 6-(1-(2,2-difluoroethyl)-4-(3-(trifluoromethyl)phenyl)-1H-imidazol-5-yl)imidazo[1,2-b]pyridazine-3-carbonitrile] has an IC50 [1] greater than 15 µM and an IC50 [2] of 1.8 nM.

`NC(=O)c1cnc2ccc(-c3c(-c4ccc(F)c(Cl)c4)ncn3C(CO)CO)cn12` [122′, 6-(4-(3-chloro-4-fluorophenyl)-1-(1,3-dihydroxypropan-2-yl)-1H-imidazol-5-yl)imidazo[1,2-a]pyridine-3-carboxamide] showed an IC50 [1] greater than 15 µM and an IC50 [2] of 1.8 nM.

With `COCC(C1CC1)n1cnc(-c2ccc(F)cc2)c1-c1ccc2ncc(C(N)=O)n2n1` (stereo not drawn) [130′, 6-(1-(1-cyclopropyl-2-methoxyethyl)-4-(4-fluorophenyl)-1H-imidazol-5-yl)imidazo[1,2-b]pyridazine-3-carboxamide] the IC50 [1] was greater than 15 µM and the IC50 [2] was 2.1 nM.

`CC(=O)Nc1cccc(-c2ncn(CC(F)F)c2-c2ccc3ncc(C#N)n3n2)c1` [245′, N-(3-(5-(3-cyanoimidazo[1,2-b]pyridazin-6-yl)-1-(2,2-difluoroethyl)-1H-imidazol-4-yl)phenyl)acetamide] was tested, and the IC50 [1] was greater than 15 µM and the IC50 [2] was 49.1 nM.

`N#Cc1cnc2ccc(-c3c(-c4ccc(F)cc4)ncn3C3CCCCC3O)nn12` (stereo not drawn) [17′, 6-(4-(4-fluorophenyl)-1-(2-hydroxycyclohexyl)-1H-imidazol-5-yl)imidazo[1,2-b]pyridazine-3-carbonitrile] was tested, and the IC50 [1] was greater than 15 µM and the IC50 [2] was 3.5 nM.

Work on `CC(C)(O)c1cccc(-c2ncn(CC(F)F)c2-c2ccc3ncc(C#N)n3n2)c1` [265′, 6-(1-(2,2-difluoroethyl)-4-(3-(2-hydroxypropan-2-yl)phenyl)-1H-imidazol-5-yl)imidazo[1,2-b]pyridazine-3-carbonitrile] yielded an IC50 [1] greater than 15 µM and an IC50 [2] of 9.8 nM.

With `CCOC(=O)c1cnc2ccc(-c3c(-c4ccc(F)cc4)ncn3CC(F)F)cn12` [274C′, ethyl 6-(1-(2,2-difluoroethyl)-4-(4-fluorophenyl)-1H-imidazol-5-yl)imidazo[1,2-a]pyridine-3-carboxylate] the IC50 [1] was greater than 15 µM and the IC50 [2] was 7 nM.

`O=C(NC1CC1)c1cnc2ccc(-c3c(-c4ccc(F)cc4)ncn3CC(F)F)cn12` [Example 279′, N-cyclopropyl-6-(1-(2,2-difluoroethyl)-4-(4-fluorophenyl)-1H-imidazol-5-yl)imidazo[1,2-a]pyridine-3-carboxamide] showed an IC50 [1] greater than 15 µM and an IC50 [2] of 9.5 nM.

`Fc1ccc(-c2ncn(CC(F)F)c2-c2ccc3ncc(N4CCOCC4)n3c2)cc1` [Example 289′, 4-(6-(1-(2,2-difluoroethyl)-4-(4-fluorophenyl)-1H-imidazol-5-yl)imidazo[1,2-a]pyridin-3-yl)morpholine] gave an IC50 [1] greater than 15 µM and an IC50 [2] of 376 nM.

For `CN(C)CCCn1cnc(-c2ccc(F)cc2)c1-c1ccc2ncc(C(N)=O)n2c1` [163′, 6-(1-(3-(dimethylamino)propyl)-4-(4-fluorophenyl)-1H-imidazol-5-yl)imidazo[1,2-a]pyridine-3-carboxamide], the IC50 [1] was greater than 15 µM and the IC50 [2] was 31.9 nM.

Work on `CC(C)(C)OC(=O)N1CC(n2cnc(-c3ccc(F)cc3)c2-c2ccc3ncc(C(N)=O)n3n2)C1` [195A′, tert-butyl 3-(5-(3-carbamoylimidazo[1,2-b]pyridazin-6-yl)-4-(4-fluorophenyl)-1H-imidazol-1-yl)azetidine-1-carboxylate] yielded an IC50 [1] greater than 15 µM and an IC50 [2] of 244 nM.

`COC(=O)N1CC(n2cnc(-c3ccc(F)cc3)c2-c2ccc3ncc(C#N)n3n2)C1` [Example 190′, methyl 3-(5-(3-cyanoimidazo[1,2-b]pyridazin-6-yl)-4-(4-fluorophenyl)-1H-imidazol-1-yl)azetidine-1-carboxylate] was tested, and the IC50 [1] was greater than 15 µM and the IC50 [2] was 52.7 nM.

`NC(=O)c1cnc2ccc(-c3c(-c4ccc(F)c(Cl)c4)ncn3C3CCOCC3)nn12` [144′, 6-(4-(3-chloro-4-fluorophenyl)-1-(tetrahydro-2H-pyran-4-yl)-1H-imidazol-5-yl)imidazo[1,2-b]pyridazine-3-carboxamide] showed an IC50 [1] greater than 15 µM and an IC50 [2] of 4.1 nM.

Work on `NC(=O)c1cnc2ccc(-c3c(-c4ccc(F)c(Cl)c4)ncn3CCN3CCOCC3)cn12` [120′, 6-(4-(3-chloro-4-fluorophenyl)-1-(2-morpholinoethyl)-1H-imidazol-5-yl)imidazo[1,2-a]pyridine-3-carboxamide] yielded an IC50 [1] greater than 15 µM and an IC50 [2] of 6.5 nM.

For `N#Cc1cnc2ccc(-c3c(-c4ccc(F)c(Cl)c4)ncn3CCN3CCOCC3)cn12` [95′, 6-(4-(3-chloro-4-fluorophenyl)-1-(2-morpholinoethyl)-1H-imidazol-5-yl)imidazo[1,2-c]pyridine-3-carbonitrile], the IC50 [1] was greater than 15 µM and the IC50 [2] was 76.8 nM.

With `COC(=O)Nc1cnc2ccc(-c3c(-c4ccc(F)cc4)ncn3CC(F)F)nn12` [Example 211′, methyl (6-(1-(2,2-difluoroethyl)-4-(4-fluorophenyl)-1H-imidazol-5-yl)imidazo[1,2-b]pyridazin-3-yl)carbamate] the IC50 [1] was greater than 15 µM and the IC50 [2] was 4.5 nM.

`CC(=O)Nc1nc(-c2ccc(F)cc2)c(-c2ccc3ncc(C#N)n3c2)n1CC(F)F` [297′] showed an IC50 [1] greater than 15 µM and an IC50 [2] of 542 nM.

Work on `NC(=O)c1cnc2ccc(-c3c(-c4ccc(F)cc4)nc4n3CCN(CC(F)F)C4)cn12` [Example 294′, 6-(7-(2,2-difluoroethyl)-2-(4-fluorophenyl)-5,6,7,8-tetrahydroimidazo[1,2-a]pyrazin-3-yl)imidazo[1,2-a]pyridine-3-carboxamide] yielded an IC50 [1] greater than 15 µM and an IC50 [2] of 27.2 nM.

Work on `NC(=O)c1cnc2ccc(-c3c(-c4ccc(F)c(Cl)c4)ncn3C3CC(F)(F)C3)nn12` [118′, 6-(4-(3-chloro-4-fluorophenyl)-1-(3,3-difluorocyclobutyl)-1H-imidazol-5-yl)imidazo[1,2-b]pyridazine-3-carboxamide] yielded an IC50 [1] greater than 15 µM and an IC50 [2] of 1.4 nM.

With `O=C(NC1CC1)c1cnc2ccc(-c3c(-c4ccc(F)cc4)ncn3CC(F)F)nn12` [208′, N-cyclopropyl-6-(1-(2,2-difluoroethyl)-4-(4-fluorophenyl)-1H-imidazol-5-yl)imidazo[1,2-b]pyridazine-3-carboxamide] the IC50 [1] was greater than 15 µM and the IC50 [2] was 1.2 nM.

`N#Cc1cnc2ccc(-c3c(-c4ccc(F)cc4)ncn3[C@]34CC5CC(C[C@](O)(C5)C3)C4)nn12` (single isomer, unassigned) [269′] gave an IC50 [1] greater than 15 µM and an IC50 [2] of 1200 nM.

Compound `CC(C)(O)CCn1cnc(-c2ccc(F)cc2)c1-c1ccc2ncc(C(N)=O)n2n1` [131′, 6-(4-(4-fluorophenyl)-1-(3-hydroxy-3-methylbutyl)-1H-imidazol-5-yl)imidazo[1,2-b]pyridazine-3-carboxamide] has an IC50 [1] greater than 15 µM and an IC50 [2] of 28.1 nM.

With `N#Cc1cnc2ccc(-c3c(-c4ccc(F)cc4)ncn3[C@H](CO)CC(F)(F)F)nn12` [29′, (S)-6-(4-(4-fluorophenyl)-1-(4,4,4-trifluoro-1-hydroxybutan-2-yl)-1H-imidazol-5-yl)imidazo[1,2-b]pyridazine-3-carbonitrile] the IC50 [1] was greater than 15 µM and the IC50 [2] was 6.4 nM.

For `NC(=O)c1cnc2ccc(-c3c(-c4cc(Cl)c(F)cc4F)ncn3CC(F)F)cn12` [235′, 6-(4-(5-chloro-2,4-difluorophenyl)-1-(2,2-difluoroethyl)-1H-imidazol-5-yl)imidazo[1,2-a]pyridine-3-carboxamide], the IC50 [1] was greater than 15 µM and the IC50 [2] was 1 nM.

In the case of `N#Cc1cnc2ccc(-c3c(-c4ccc(F)c(Cl)c4)ncn3C3CCOCC3)nn12` [48′, 6-(4-(3-chloro-4-fluorophenyl)-1-(tetrahydro-2H-pyran-4-yl)-1H-imidazol-5-yl)imidazo[1,2-b]pyridazine-3-carbonitrile], the IC50 [1] is reported as greater than 15 µM and the IC50 [2] is reported as 3.1 nM.

In the case of `Fc1ccc(-c2ncn(CC(F)F)c2-c2ccc3ncc(CNC4CC(F)(F)C4)n3c2)cc1` [276′, N-((6-(1-(2,2-difluoroethyl)-4-(4-fluorophenyl)-1H-imidazol-5-yl)imidazo[1,2-a]pyridin-3-yl)methyl)-3,3-difluorocyclobutanamine], the IC50 [1] is reported as greater than 15 µM and the IC50 [2] is reported as 988 nM.

Work on `CN(C)C(=O)c1cnc2ccc(-c3c(-c4ccc(F)cc4)ncn3CC(F)F)nn12` [207′, 6-(1-(2,2-difluoroethyl)-4-(4-fluorophenyl)-1H-imidazol-5-yl)-N,N-dimethylimidazo[1,2-b]pyridazine-3-carboxamide] yielded an IC50 [1] greater than 15 µM and an IC50 [2] of 3 nM.

`CS(=O)(=O)Nc1ccccc1-c1ncn(CC(F)F)c1-c1ccc2ncc(C#N)n2n1` [239′, N-(2-(5-(3-cyanoimidazo[1,2-b]pyridazin-6-yl)-1-(2,2-difluoroethyl)-1H-imidazol-4-yl)phenyl)methanesulfonamide] was tested, and the IC50 [1] was greater than 15 µM and the IC50 [2] was 521 nM.

`CC(C)OC(=O)NCc1cnc2ccc(-c3c(-c4ccc(F)cc4)ncn3CC(F)F)nn12` [Example 201′, isopropyl ((6-(1-(2,2-difluoroethyl)-4-(4-fluorophenyl)-1H-imidazol-5-yl)imidazo[1,2-b]pyridazin-3-yl)methyl)carbamate] showed an IC50 [1] greater than 15 µM and an IC50 [2] of 5 nM.
